Entries after “also recorded” stand apart in the source; their conditions may differ. Counter-ions that a name gives are not always drawn.
How the values were obtained:
LNCaP cells = experiment: MTT cell growth, LNCaP; format: cell-based; conditions: six days; data not shown
KLK2 [1] = experiment: qRT-PCR of AR-regulated gene KLK2; format: cell-based; conditions: 24 hours; VCaP, LAPC-4, LNCaP, CWR-R1 and 22rv1 cells
CWR-R1 cells = experiment: MTT cell growth, CWR-R1; format: cell-based, human; conditions: six days; DHT-17C at 20 nM, DHT-3C at 20 nM
Experimental: (§1) Identification of a 3α-oxidoreductase inhibitors: Various non-steroidal compounds were tested for anti-neoplastic activity by screening against PC-3 CaP cells. Coumarin-labeled androgens were developed to track changes in androgen metabolism pathways in response to castration or androgen metabolism inhibition using in vitro and in vivo CaP cell models.
(§2) VCaP, CWR-R1 and PC-3 cells were treated for six days with complete culture media (CM), serum-free culture media (SFM), bicalutamide (Bic) at 10 μM, the coumarin C at 20 μM, DHT at 10 nM, DHT-17C at 20 nM and DHT-3C at 20 nM (FIG. 20). […] MTT analysis was performed to compare cell growth impairment of VCaP cells treated with DHT-17C versus enzalutamide. Cells were treated with DHT-17C at 1 nM, 12 nM, 20 nM, 50 nM or 100 nM concentrations, or enzalutamide at 1 μM, 12 μM, 20 μM, 50 μM or 100 μM concentrations. […] MTT performed using ezanlutamide (20 uM) or DHT-17C (50 nM) treated mutant AR and AR-V7 positive CWR-R1 cells supported VCaP MTT data (FIG. 22).

CaP cell lines = experiment: MTT CaP cell growth during androgen deprivation, cell line panel; format: cell-based; conditions: SFM with DHT-3C, six days
Source text: MTT analysis was used to assess if treatment with DHT-3C facilitated CaP cell growth during androgen deprivation. […] SFM with DHT-3C stimulated growth in 3 of 5 cell lines (FIG. 25).

AR-V2-GFP = biological target: T1, AR-V2-GFP (Homo sapiens, UniProt P10275); experiment: ImageStream co-localization with AR-V2-GFP; format: cell-based; conditions: VCaP and PC-3 cells that stably expressed AR-V2-GFP; hydrochloride
T1 construct: stably expressed AR170 LBD only with splice variant V2 (AR-V2-GFP); expressed in transfected cells; host or cells: VCaP, PC-3
T1 sequence (P10275 1-388 isoform P10275-2): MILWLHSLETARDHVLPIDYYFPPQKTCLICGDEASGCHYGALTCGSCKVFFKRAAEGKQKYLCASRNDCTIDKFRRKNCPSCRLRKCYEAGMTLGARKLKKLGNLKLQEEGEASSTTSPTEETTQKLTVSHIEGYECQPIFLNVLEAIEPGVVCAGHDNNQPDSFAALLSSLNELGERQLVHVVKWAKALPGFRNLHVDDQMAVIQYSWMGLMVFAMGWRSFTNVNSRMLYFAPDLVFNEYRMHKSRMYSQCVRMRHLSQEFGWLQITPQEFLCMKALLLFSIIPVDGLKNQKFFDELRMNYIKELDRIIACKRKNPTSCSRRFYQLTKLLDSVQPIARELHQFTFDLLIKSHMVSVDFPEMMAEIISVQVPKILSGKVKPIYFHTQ
Experimental: (§3) ImageStream studies were repeated using VCaP and PC-3 cells that stably expressed AR-V2 (splice-variant that lacked the N-terminus) with C-terminal GFP (AR-V2-GFP). […] ImageStream data was confirmed using immunoprecipation (IP) studies performed with a DHT-targeted antibody.
(§4) Serum-free complete media (SFM)^2 was used to androgen deprive cells. PC-3 cells that contained empty plasmid were treated with SFM alone, SFM with C or SFM with DHT-3C.

KLK2 [2] = experiment: Western blot of AR-regulated protein expression; format: cell-based; conditions: CaP cell lines
[3] = test system: AR- or AR-GFP negative PC-3 cells; experiment: ImageStream nuclear localization in AR-negative PC-3 cells; format: cell-based; conditions: PC-3 cells without AR or AR-GFP (empty plasmid); hydrochloride
Experimental: as §3, §4

VCaP cells = experiment: MTT cell growth, VCaP; format: cell-based
Experimental: as §1, §2

LAPC-4 cells = experiment: MTT cell growth, LAPC-4; format: cell-based; conditions: six days; data not shown
AR-GFP = biological target: T2, AR-GFP (Homo sapiens, UniProt P10275); experiment: ImageStream nuclear co-localization with AR-GFP; format: cell-based
T2 construct: expressed in transfected cells; host or cells: VCaP, PC-3 (also LAPC-4, CWR-R1, 22Rv1, DU145)
T2 sequence (P10275 1-920): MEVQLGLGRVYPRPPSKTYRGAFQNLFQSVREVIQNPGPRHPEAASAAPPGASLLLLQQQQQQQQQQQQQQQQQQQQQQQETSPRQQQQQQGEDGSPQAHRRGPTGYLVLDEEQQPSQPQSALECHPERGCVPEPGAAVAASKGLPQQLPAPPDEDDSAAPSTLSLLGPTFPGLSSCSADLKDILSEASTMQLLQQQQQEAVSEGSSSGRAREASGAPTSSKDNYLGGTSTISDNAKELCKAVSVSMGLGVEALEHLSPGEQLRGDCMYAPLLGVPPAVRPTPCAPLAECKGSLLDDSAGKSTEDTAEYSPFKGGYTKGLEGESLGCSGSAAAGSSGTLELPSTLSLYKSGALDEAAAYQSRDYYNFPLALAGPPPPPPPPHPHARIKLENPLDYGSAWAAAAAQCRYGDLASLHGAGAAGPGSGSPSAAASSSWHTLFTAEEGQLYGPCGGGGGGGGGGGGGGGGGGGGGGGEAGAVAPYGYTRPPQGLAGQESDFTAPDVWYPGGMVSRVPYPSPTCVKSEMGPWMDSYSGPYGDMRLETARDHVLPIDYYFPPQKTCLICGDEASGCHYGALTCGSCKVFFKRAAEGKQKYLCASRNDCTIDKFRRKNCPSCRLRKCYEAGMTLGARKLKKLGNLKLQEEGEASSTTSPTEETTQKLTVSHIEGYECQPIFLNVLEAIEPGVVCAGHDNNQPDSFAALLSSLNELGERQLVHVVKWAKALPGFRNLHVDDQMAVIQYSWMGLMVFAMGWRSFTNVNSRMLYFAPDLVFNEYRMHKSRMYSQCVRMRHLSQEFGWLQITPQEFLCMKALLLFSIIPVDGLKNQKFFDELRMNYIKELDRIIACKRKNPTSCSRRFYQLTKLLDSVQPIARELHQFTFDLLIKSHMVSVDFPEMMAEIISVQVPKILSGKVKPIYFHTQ
Source text: Androgen-sensitive AR-positive LAPC-4 and VCaP, castration-recurrent and AR-positive CWR-R1 and CWR-22rv1 (22rv1), and AR-negative PC-3 and DU145 cells were transfected with either an empty pCMV expression plasmid (control) or a pCMV plasmid that encoded a wild-type AR tagged with a C-terminal green fluorescent protein (GFP; AR-GFP). AR-positive CaP cell lines were transfected with AR-GFP to assess if DHT-17C or DHT-3C co-localized with AR and translocated to the nucleus.
AR positive CaP cell lines were treated for 16 hours with androgen-free, serum-free complete media (SFM) alone, or SFM that contained 20 nM or 50 nM fluorescent-androgens or C alone. The time points were chosen to measure differences in uptake of the fluorescent-androgens and nuclear or cytosolic localization of the fluorescent-androgens and/or AR-GFP.
Serum-free complete media (SFM)^2 was used to androgen deprive cells.

CRPC = conditions: cited from earlier work

## C[C@]12CC[C@]3(C[C@@H]1CC[C@@H]1[C@@H]2CC[C@]2(C)[C@@H](O)CC[C@@H]12)NCCc1c3c(=O)oc2c3c4c(cc12)CCCN4CCC3 [DHT-3C, (3R,5S,10S,13S,17S)-17-hydroxy-10,13-dimethyl-1,2,2′,3′,4,5,6,7,8,8′,9,9′,10,11,12,12′,13,13′,14,15,16,17-docosahydro-7′H,11′H-spiro[cyclopenta[a]phenanthrene-3,4′-pyrido[3,2,1-ij]pyrido[4′,3′:4,5]pyrano[2,3-j]quinolin]-5′(1′H)-one hydrochloride]
LNCaP cells
  LNCaP cell growth (MTT): promoted VCaP, LAPC-4, and LNCaP cell growth
KLK2 [1]
  KLK2 transcript induction: produced similar inductions of expression
CWR-R1 cells
  CWR-R1 cell growth (MTT): promoted
CaP cell lines
  cell lines with stimulated growth: 3 of 5
AR-V2-GFP
  co-localization with AR-V2-GFP: co-localized with DRAQ5 and AR-V2-GFP; also recorded: co-localized with the AR LBD
KLK2 [2]
  AR-regulated protein expression levels: produced similar AR-regulated protein expression levels
[3]
  nuclear localization in AR-negative cells: did not produce nuclear fluorescence
VCaP cells; six days, DHT-17C at 20 nM, DHT-3C at 20 nM
  VCaP cell growth (MTT): promoted VCaP, LAPC-4, and LNCaP cell growth
LAPC-4 cells
  LAPC-4 cell growth (MTT): promoted VCaP, LAPC-4, and LNCaP cell growth
AR-GFP; PC-3-AR-GFP cells, SFM
  nuclear co-localization with AR-GFP: showed nuclear co-localization between DHT-3C and AR-GFP
AR-GFP; VCaP that stably expressed AR-GFP
  nuclear co-localization with AR-GFP: demonstrated co-localization between DHT-3C and AR-GFP
AR-GFP; VCaP-AR-GFP and PC-3-AR-GFP cells
  nuclear co-localization with AR-GFP and DRAQ5: co-localized with AR-GFP

## CNC(=O)c1ccc(N2C(=S)N(c3ccc(C#N)c(C(F)(F)F)c3)C(=O)C2(C)C)cc1F [enzalutamide, reference compound]
CRPC
  extension of survival: 4.8 months
VCaP cells; enzalutamide at 1, 12, 20, 50 or 100 μM
  VCaP cell growth impairment versus DHT-17C: impaired VCaP cell growth to similar extents

Reference: US12337004B2, “Coumarin-modified androgens for the treatment of prostate cancer” (Health Research, Inc., priority 2019, dated 2025)
